Reference: PMC11642044 (International Journal of Molecular Sciences, 2024)

Key:
Assay type in all cases: cell-based, human
ERK = assay: Stimulatory phosphorylation of ERK (Western blot), U87-MG; conditions: 5 μM HOE-140, 1 µM bradykinin, 10 min
Procedure: (§1) The resulting Ca^2+ signal profiles were monitored by FLIPR for 3 min.
(§2) SDS-PAGE and Western blotting were performed as described in our previous studies. In brief, cells in 6-well plates (5 × 10^5 cells/well) were lysed in 500 μL of ice-cold lysis buffer (50 mM Tris-HCl at pH 7.5 containing 100 mM NaCl, 5 mM EDTA, 40 mM NaP2O7, 1% Triton X-100, 1 mM dithiothreitol, 200 μM Na3VO4, 100 μM phenylmethylsulfonyl fluoride, 2 μg/mL leupeptin, 4 μg/mL aprotinin, and 0.7 μg/mL pepstatin) and then gently shaken for 30 min. The amount of protein in each sample was determined by detergent compatible (DC) protein assay according to the supplier’s instruction (Bio-Rad, Hercules, CA, USA). Clarified lysates (30 μg protein per sample) were resolved on 12% SDS-polyacrylamide gels and then transferred to nitrocellulose membranes (Westborough, MA, USA). Resolved proteins were detected by specific primary antibodies and horseradish peroxidase-conjugated secondary antisera. The level of β-actin was determined as an internal control. […] Chemiluminescence signals were then detected by ChemiDoc imaging systems (Bio-Rad, Hercules, CA, USA) with the subsequent band densities quantified by ImageJ (https://imagej.net/ij/) analysis software (National Institutes of Health, MD, USA). […]
(§3) Chemiluminescence signals were then detected by the ChemiDoc Imaging Systems (Bio-Rad, […]

p38 MAPK = assay: Stimulatory phosphorylation of p38 MAPK (Western blot), U87-MG; conditions: 5 μM HOE-140, 1 µM bradykinin, 10 min
Procedure: as §1, §2, §3

JNK = assay: Stimulatory phosphorylation of JNK (Western blot), U87-MG; conditions: 5 μM HOE-140, 1 µM bradykinin, 10 min
Procedure: as §1, §2, §3

ERK in U87-MG cells = assay: ERK phosphorylation in U87-MG by SK-N-MC-derived conditioned media (CM-SK); conditions: HOE-140 5 μM, 15 min pre-treatment
Procedure: (§4) These conditioned media were either immediately applied to SK-N-SH/SK-N-MC cells (80–100% confluence) in 6-well plates for 15 min, or subjected to heat treatment on a 96 °C heat block for 5 min, and then cooled to 37 °C before they were applied to the SK-N-SH/SK-N-MC cells for 15 min. […] For the SK-N-MC-derived conditioned media, SK-N-MC cells (80–100% confluence) in a 10 cm culture dish were serum-starved in 10 mL of MEM (without FBS), with 1 mL of the resulting conditioned medium being collected at indicated time points (15 min, 1 h, 3 h, 6 h). Simultaneously, U87-MG cells (80–100% confluence) in 12-well plates were serum-starved in MEM for 6 h, followed by pretreatment of […] (5 μM, 15 min), and then challenged with the SK-N-MC-derived conditioned media (mentioned above) for 10 min before cell lysis. […]
(§5) SDS-PAGE and Western blotting were performed as described in our previous studies. […] The amount of protein in each sample was determined by detergent compatible (DC) protein assay according to the supplier’s instruction (Bio-Rad, Hercules, CA, USA). […] Resolved proteins were detected by specific primary antibodies and horseradish peroxidase-conjugated secondary antisera. The level of β-actin was determined as an internal control.

p38 in U87-MG cells = assay: p38 phosphorylation in U87-MG by SK-N-MC-derived conditioned media (CM-SK); conditions: HOE-140 5 μM, 15 min pre-treatment
Procedure: as §4, §5

JNK in U87-MG cells = assay: JNK phosphorylation in U87-MG by SK-N-MC-derived conditioned media (CM-SK); conditions: HOE-140 5 μM, 15 min pre-treatment
Procedure: as §4, §5

[1] = test system: B2R-mediated LIF secretion in U87-MG cells; assay: Inhibition of bradykinin-induced LIF production (ELISA), U87-MG; conditions: 5 μM HOE-140, 30 min pre-treatment, bradykinin 1 µM, 24 h
Procedure: Conditioned media were analyzed for the presence of multiple cytokines by using the cytokine multiplex assay kits (Merck Millipore, MA, USA) as previously described. Briefly, a bead mixture with various capture antibodies (50 μL) was added to a 96-well microtiter plate, followed by 50 μL of cytokine standard mix or test sample and then 25 μL of a biotinylated detection antibody mixture. The mixtures were incubated for 30 min at 25 °C with gentle shaking. Unbound antibodies were removed by three gentle washes. Finally, 50 μL of streptavidin–PE solution was added and incubated for another 30 min with gentle shaking. The detection beads were then washed again and resuspended in 120 μL of reading buffer. The Bio-Plex™ 200 system (Bio-Rad Laboratories, Hercules, CA, USA) with the Bio-Plex manager software (version 5.0) was utilized for signal detection and data analysis. Curve fitting was applied to each standard curve according to the manufacturer’s manual and sample concentrations were interpolated from the standard curves. Individual detections for LIF and IL-6 were performed using the corresponding ELISA kits from Abcam (Cambridge, UK) according to the manufacturer’s instructions.
as §1

HOE-140
inhibition of bradykinin-induced ERK activation (ERK): completely abolished
inhibition of bradykinin-induced p38 MAPK activation (p38 MAPK): completely abolished
inhibition of bradykinin-induced JNK activation (JNK): completely abolished
inhibition of CM-SK-stimulated ERK phosphorylation (ERK in U87-MG cells): significantly inhibited
inhibition of CM-SK-stimulated p38 phosphorylation (p38 in U87-MG cells): significantly inhibited
inhibition of CM-SK-stimulated JNK phosphorylation (JNK in U87-MG cells): significantly inhibited
inhibition of bradykinin-induced LIF production [1]: blocked the ability of bradykinin to stimulate LIF production
